Tests used:
[1] = system: HT-29; test: Antiproliferative activity against human HT-29 cells after 48 hrs by MTT assay; format: functional, cell-based; settings: HT-29, 48 h
[2] = system: HGC-27; test: Antiproliferative activity against human HGC27 cells after 48 hrs by MTT assay; format: functional, cell-based; settings: HGC-27, 48 h
[3] = system: MDA-MB-231; test: Antiproliferative activity against human MDA-MB-231 cells after 48 hrs by MTT assay; format: functional, cell-based; settings: MDA-MB-231, 48 h
[4] = system: JIMT-1; test: Antiproliferative activity against human JIMT1 cells by MTT assay; format: functional, cell-based
[5] = system: MCF7; test: Antiproliferative activity against human MCF7 cells by MTT assay; format: functional, cell-based
[6] = system: U-87 MG; test: Antiproliferative activity against human U87 cells by MTT assay; format: functional, cell-based, U-87MG ATCC
[7] = system: HeLa; test: Antiproliferative activity against human HeLa cells by MTT assay; format: functional, cell-based
[8] = system: Caco-2; test: Antiproliferative activity against human Caco2 cells by MTT assay; format: functional, cell-based
[9] = system: HT-29; test: Antiproliferative activity against human HT-29 cells by MTT assay; format: functional, cell-based
[10] = system: HGC-27; test: Antiproliferative activity against human HGC27 cells by MTT assay; format: functional, cell-based
[11] = system: MDA-MB-231; test: Antiproliferative activity against human MDA-MB-231 cells by MTT assay; format: functional, cell-based

Q: Which IC50 [1] does the source give for `CC[C@@H](C(=O)[C@@H](C)[C@@H](O)[C@H](C)[C@@H]1O[C@@H]([C@@H](CC)C(=O)O)CC[C@@H]1C)[C@H]1O[C@@]2(C=C[C@@H](OCc3ccccc3)[C@@]3(CC[C@@](C)([C@H]4CC[C@](O)(CC)[C@H](C)O4)O3)O2)[C@H](C)C[C@@H]1C` here?
A: 2800 nM

Q: And the IC50 [2]?
A: 4140 nM

Q: And the IC50 [3]?
A: 6560 nM

Q: What does the source list for `CC[C@@H](C(=O)[C@@H](C)[C@@H](O)[C@H](C)[C@@H]1O[C@@H]([C@@H](CC)C(=O)O)CC[C@@H]1C)[C@H]1O[C@]2(C=C[C@@H](OC(=O)c3ccccc3)[C@]3(CC[C@@](C)([C@H]4CC[C@](O)(CC)[C@H](C)O4)O3)O2)[C@H](C)C[C@@H]1C`?
A: IC50 [4]: 360 nM; IC50 [5]: 200 nM

Q: What does the source list for `CC[C@@H](C(=O)[C@@H](C)[C@@H](O)[C@H](C)[C@@H]1O[C@@H]([C@@H](CC)C(=O)O)CC[C@@H]1C)[C@H]1O[C@]2(C=C[C@@H](OC(=O)c3ccco3)[C@]3(CC[C@@](C)([C@H]4CC[C@](O)(CC)[C@H](C)O4)O3)O2)[C@H](C)C[C@@H]1C`?
A: IC50 [4]: 160 nM; IC50 [5]: 130 nM

Q: With `CC[C@@H](C(=O)[C@@H](C)[C@@H](O)[C@H](C)[C@@H]1O[C@@H]([C@@H](CC)C(=O)O)CC[C@@H]1C)[C@H]1O[C@]2(C=C[C@H](n3cc(-c4ccc(C(C)(C)C)cc4)nn3)[C@]3(CC[C@@](C)([C@H]4CC[C@](O)(CC)[C@H](C)O4)O3)O2)[C@H](C)C[C@@H]1C` as the compound, how does the IC50 [6] read?
A: 18900 nM

Q: And the IC50 [7]?
A: 2010 nM

Q: And the IC50 [8]?
A: 1820 nM

Q: With `CC[C@@H](C(=O)[C@@H](C)[C@@H](O)[C@H](C)[C@@H]1O[C@@H]([C@@H](CC)C(=O)O)CC[C@@H]1C)[C@H]1O[C@@]2(C=C[C@@H](O)[C@]3(CC[C@@](C)([C@H]4CC[C@](O)(CC)[C@H](C)O4)O3)O2)[C@H](C)C[C@@H]1C` as the compound, how does the IC50 [1] read?
A: > 10000 nM

Q: What about the IC50 [2] of the same compound?
A: > 10000 nM

Q: And the IC50 [3]?
A: > 10000 nM

Q: With `CC[C@@H](C(=O)[C@@H](C)[C@@H](O)[C@H](C)[C@@H]1O[C@@H]([C@@H](CC)C(=O)O)CC[C@@H]1C)[C@H]1O[C@]2(C=C[C@@H](OC(=O)C3CCCCC3)[C@]3(CC[C@@](C)([C@H]4CC[C@](O)(CC)[C@H](C)O4)O3)O2)[C@H](C)C[C@@H]1C` as the compound, how does the IC50 [4] read?
A: 300 nM

Q: And the IC50 [5]?
A: 240 nM

Q: What does the source list for `CCOC(=O)O[C@@H]1C=C[C@]2(O[C@H]([C@@H](CC)C(=O)[C@@H](C)[C@@H](O)[C@H](C)[C@@H]3O[C@@H]([C@@H](CC)C(=O)O)CC[C@@H]3C)[C@@H](C)C[C@H]2C)O[C@@]12CC[C@@](C)([C@H]1CC[C@](O)(CC)[C@H](C)O1)O2`?
A: IC50 [4]: 90 nM; IC50 [5]: 130 nM

Q: What does the source list for `CC[C@@H](C(=O)[C@@H](C)[C@@H](O)[C@H](C)[C@@H]1O[C@@H]([C@@H](CC)C(=O)O)CC[C@@H]1C)[C@H]1O[C@]2(C=C[C@@H](OC(=O)c3cnco3)[C@]3(CC[C@@](C)([C@H]4CC[C@](O)(CC)[C@H](C)O4)O3)O2)[C@H](C)C[C@@H]1C`?
A: IC50 [4]: 240 nM; IC50 [5]: 230 nM

Q: Which results are given for `CCNC(=O)O[C@@H]1C=C[C@]2(O[C@H]([C@@H](CC)C(=O)[C@@H](C)[C@@H](O)[C@H](C)[C@@H]3O[C@@H]([C@@H](CC)C(=O)O)CC[C@@H]3C)[C@@H](C)C[C@H]2C)O[C@@]12CC[C@@](C)([C@H]1CC[C@](O)(CC)[C@H](C)O1)O2`?
A: IC50 [4]: 260 nM; IC50 [5]: 160 nM

Q: Which IC50 [6] does the source give for `CC[C@@H](C(=O)[C@@H](C)[C@@H](O)[C@H](C)[C@@H]1O[C@@H]([C@@H](CC)C(=O)O)CC[C@@H]1C)[C@H]1O[C@]2(C=C[C@H](n3cc(-c4ccccn4)nn3)[C@]3(CC[C@@](C)([C@H]4CC[C@](O)(CC)[C@H](C)O4)O3)O2)[C@H](C)C[C@@H]1C` here?
A: 15700 nM

Q: What about the IC50 [7] of the same compound?
A: 610 nM

Q: What about the IC50 [8] of the same compound?
A: 3310 nM

Q: What does the source list for `CC[C@@H](C(=O)[C@@H](C)[C@@H](O)[C@H](C)[C@@H]1O[C@@H]([C@@H](CC)C(=O)O)CC[C@@H]1C)[C@H]1O[C@]2(C=C[C@@H](OC(C)=O)[C@]3(CC[C@@](C)([C@H]4CC[C@](O)(CC)[C@H](C)O4)O3)O2)[C@H](C)C[C@@H]1C`?
A: IC50 [4]: 110 nM; IC50 [5]: 110 nM

Q: What does the source list for `CC[C@@H](C(=O)[C@@H](C)[C@@H](O)[C@H](C)[C@@H]1O[C@@H]([C@@H](CC)C(=O)O)CC[C@@H]1C)[C@H]1O[C@]2(C=C[C@@H](OC(=O)Oc3ccccc3)[C@]3(CC[C@@](C)([C@H]4CC[C@](O)(CC)[C@H](C)O4)O3)O2)[C@H](C)C[C@@H]1C`?
A: IC50 [4]: 200 nM; IC50 [5]: 240 nM

Q: For `CC[C@@H](C(=O)[C@@H](C)[C@@H](O)[C@H](C)[C@@H]1O[C@@H]([C@@H](CC)C(=O)O)CC[C@@H]1C)[C@H]1O[C@]2(C=C[C@H](OC(=O)c3ccc(F)cc3)[C@]3(CC[C@@](C)([C@H]4CC[C@](O)(CC)[C@H](C)O4)O3)O2)[C@H](C)C[C@@H]1C`, which IC50 [9] is on record?
A: 160 nM

Q: What about the IC50 [10] of the same compound?
A: 280 nM

Q: And the IC50 [11]?
A: 790 nM
